Results as given in patent publication US20210137941A1 (ZARODEX THERAPEUTICS LIMITED, priority 2018, published 2021).
“And” between values parts separate entries of the source, which are not always exact repeats. Identical values can stand only once. “Also recorded” adds a separate entry of the source.

Columns and labels:
[1] = test system: anti-collagen IgG1 and IgG2a; assay: CIA model: serum anti-collagen immunoglobulin by ELISA; type: in vivo, DBA/1 mice; conditions: FIG. 33
Method: (§1) All experiments were approved by the Clinical Medicine Animal Welfare and Ethical Review Body (AWERB) and by the UK Home Office.
(§2) At the end of the experimental period, mice were humanely euthanised and bled by cardiac puncture to obtain blood samples for serum separation, storage at −80° C. and subsequent measurement of specific anti-collagen immunoglobulin (IgG1 and IgG2a isotypes) by ELISA. In parallel, spleen and inguinal lymph nodes were harvested for evaluation of cellular composition across these compartments using multi-laser flow cytometric detection and analysis. Numbers of B cell subsets in spleen and lymph nodes were determined by FACS.
(§3) Data were analyzed by one-way ANOVA with Tukey's or Dunnett's multiple comparison test or two-way ANOVA with Tukey's multiple comparison test as appropriate. All calculations were made using GraphPad Prism software. A P value less than 0.05 was considered significant.

[2] = test system: circulating immunoglobulins; assay: Wild type mouse study: circulating immunoglobulin profile by ELISA; type: in vivo, C57BL/6 mice; conditions: FIG. 24
[3] = test system: specific antibody titres against Haemophilus influenzae, Tetanus and Pneumococcal capsular polysaccharide; design: species or system human; conditions: in vivo
[4] = in vivo; cited from earlier work
[5] = test system: serum/plasma IgG, IgA, IgM; conditions: cited from earlier work
[6] = test system: Immunoglobulin levels (IgG, IgA and IgM); assay: First observational study: serum immunoglobulin levels by nephelometry, clozapine vs clozapine-naive patients; type: in vivo, human
[7] = test system: splenic B cell and T cell populations; assay: Wild type mouse study: spleen immunophenotyping by flow cytometry; type: in vivo, C57BL/6 mice
[8] = test system: collagen-induced arthritis (CIA); assay: Mouse collagen-induced arthritis (CIA) model: onset, incidence, clinical score, paw swelling; type: in vivo, DBA/1 mice
Method: Adult (age 13-15 weeks) DBA/1 male mice were purchased from Envigo (Horst, Netherlands). Mice were housed at a 21° C.±2° C. in individually ventilated cages with free access to food and water and a 12-h light/dark cycle (7 am/7 pm). Mice were acclimatised for 1 week on arrival prior to initiating experiments.
as §1
DBA/1 mice were immunised with bovine type II collagen in CFA and monitored daily for onset of arthritis. […] Controls received vehicle (saline) alone. Treatment of mice commenced in one experiment on day 1 after immunisation and in a second experiment on day 15 after immunisation. Clinical scores and paw-swelling were monitored for 10 days following onset of arthritis. A clinical scoring system was used as follows. Arthritis severity was scored by an experienced, non-blinded investigator as follows: 0=normal, 1=slight swelling and/or erythema, 2=pronounced swelling, 3=ankylosis. All four limbs were scored, giving a maximum possible score of 12 per animal.
as §3

[9] = treatment-resistant schizophrenia; cited from earlier work
[10] = test system: B220+ B cells, plasma cells, germinal centre B cells; assay: CIA model: B cell subsets in spleen and lymph nodes by FACS; type: in vivo, DBA/1 mice
Method: as §1, §2, §3

[11] = outpatients on clozapine at least five years (Lozano et al., 2016)
[12] = six weeks clozapine treatment (Hinze-Selch et al., 1998)
[13] = sub-group A: all diagnoses, all smoking, possible secondary causes not excluded, n=123
[14] = sub-group A: all diagnoses, all smoking, possible secondary causes not excluded, n=123, listed as clozapine
[15] = sub-group B: all diagnoses, all smoking, possible secondary causes excluded, n=94
[16] = sub-group C: schizophrenia diagnoses only, secondary causes excluded, n=87
[17] = sub-group D: smokers only, secondary causes excluded, n=57

With `CN1CCN(C2=Nc3cc(Cl)ccc3Nc3ccccc32)CC1` [Clozapine, clozapine] the “serum anti-type II collagen IgG1 reduction” value ([1]; 10 mg/kg from day 15) was “reaching statistical significance”, the “serum anti-type II collagen IgG2a” value ([1]; 5 or 10 mg/kg from day 1 or day 15, single time point) was “no significant impact” and the “serum anti-type II collagen IgG1” value ([1]; across all doses tested) was “nominal reductions”. For the same compound, the “other circulating immunoglobulin isotype classes” value [2] was “No other isotype classes were affected”, the “circulating IgA levels compared to control” value ([2]; clozapine 5 and 10 mg/kg, haloperidol 1 mg/kg, IP 21 days) was “reduction” and the “% of patients with IgG-Haemophilus B <1.0 mcg/ml (below protective level)” value [3] was 51% and 51.2% and 51.1% and 49.4% and 50.9%. The “% of patients with IgG-Pneumococcus <35 mg/L” value [3] was 39.0% and 38.3% and 37.9% and 45.6%, the “% of patients with IgG-Pneumococcus <50 mg/L (below protective level)” value [3] was 52.1% and 50.6% and 54.4% and the “% of patients with IgG-Tetanus <0.1 IU/ml (below protective level)” value [3] was 10.6% and 11.5% and 12.3%. For the same compound, the IgM-Pneumococcus [3] was 58.5 U/L and 59.8 U/L and 60.4 U/L and 61.6 U/L, the “Pneumococcal IgA level” value [3] was 31 U/ml and the “Pneumococcal IgM level” value [3] was 58.5 U/ml. For the same compound, the “pneumococcal IgA level” value [3] was 31.0 U/L, the LD50 [4] was 200 mg/kg and the “IgA, IgG, absolute neutrophil count and white blood cell count vs control group” value [5, 11] was “no differences were found”. The “mean plasma levels of IgM vs control group” value [5, 11] was “overall decrease”, the “IgA or IgM concentrations” value [5, 12] was “no significant effect” and the “serum concentrations of IgG” value [5, 12] was “significant increases”. The “% of patients with Serum IgM <0.3 g/L” value ([6]; human, in vivo) was 12.3%, the “concentrations/distribution of IgG, IgA and IgM vs clozapine-naive control group” value ([6]; human, in vivo) was “significantly reduced concentrations; also recorded: leftward shift” and the “association of longer duration of therapy with serum IgG” value ([6]; p 0.014, not observed with alternative antipsychotic drugs, FIG. 2) was “lower serum IgG levels”. For the same compound, the “% of patients with Serum IgA <0.5 g/L (Reference range 0.8-4.0 g/L)” value (shortened to “% of patients with Serum IgA <0.5 g/L”) [6, 13] was 1.6%, the “% of patients with Serum IgA <0.6 g/L” value [6, 13] was 2.4% and the “% of patients with Serum IgA <0.7 g/L” value [6, 13] was 6.5%. The “% of patients with Serum IgA <0.8 g/L (below reference range)” value (“% of patients with Serum IgA <0.8 g/L” below) [6, 13] was 13.0%, the “% of patients with Serum IgG <3 g/L (Reference range 6-16 g/L)” value (shortened to “% of patients with Serum IgG <3 g/L”) [6, 13] was 0.8% and the “% of patients with Serum IgG <4 g/L” value [6, 13] was 1.6%. The “% of patients with Serum IgG <5 g/L” value [6, 13] was 3.3%, the “% of patients with Serum IgG <6 g/L (below reference range)” value (shortened to “% of patients with Serum IgG <6 g/L”) [6, 13] was 9.8% and the “% of patients with Serum IgM <0.2 g/L (Reference range 0.5-1.9 g/L)” value (shortened to “% of patients with Serum IgM <0.2 g/L”) [6, 13] was 8.1%. For the same compound, the “% of patients with Serum IgM <0.3 g/L” value [6, 13] was 16.3%, the “% of patients with Serum IgM <0.4 g/L” value [6, 13] was 29.3% and the “% of patients with Serum IgM <0.5 g/L (below reference range)” value (“% of patients with Serum IgM <0.5 g/L” below) [6, 13] was 38.2%. The “% of patients with Serum IgA <0.8 g/L” value [6, 14] was 13.0% and 13.1%, the “% of patients with Serum IgG <6 g/L” value [6, 14] was 9.8% and the “% of patients with Serum IgM <0.5 g/L” value [6, 14] was 38.2%. The “% of patients with Serum IgA <0.5 g/L” value [6, 15] was 2.1%, the “% of patients with Serum IgA <0.6 g/L” value [6, 15] was 2.1% and the “% of patients with Serum IgA <0.7 g/L” value [6, 15] was 6.4%. For the same compound, the “% of patients with Serum IgA <0.8 g/L” value [6, 15] was 13.8%, the “% of patients with Serum IgG <3 g/L” value [6, 15] was 1.1% and the “% of patients with Serum IgG <4 g/L” value [6, 15] was 1.1%. For the same compound, the “% of patients with Serum IgG <5 g/L” value [6, 15] was 2.1%, the “% of patients with Serum IgG <6 g/L” value [6, 15] was 8.4% and the “% of patients with Serum IgM <0.2 g/L” value [6, 15] was 5.3%. The “% of patients with Serum IgM <0.3 g/L” value [6, 15] was 12.8%, the “% of patients with Serum IgM <0.4 g/L” value [6, 15] was 26.6% and the “% of patients with Serum IgM <0.5 g/L” value [6, 15] was 34.0%. For the same compound, the “% of patients with Serum IgA <0.5 g/L” value [6, 16] was 2.3%, the “% of patients with Serum IgA <0.6 g/L” value [6, 16] was 3.5% and the “% of patients with Serum IgA <0.7 g/L” value [6, 16] was 6.9%. The “% of patients with Serum IgA <0.8 g/L” value [6, 16] was 14.9%, the “% of patients with Serum IgG <3 g/L” value [6, 16] was 1.2% and the “% of patients with Serum IgG <4 g/L” value [6, 16] was 1.2%. For the same compound, the “% of patients with Serum IgG <5 g/L” value [6, 16] was 2.3%, the “% of patients with Serum IgG <6 g/L” value [6, 16] was 9.2% and the “% of patients with Serum IgM <0.2 g/L” value [6, 16] was 5.8%. The “% of patients with Serum IgM <0.3 g/L” value [6, 16] was 12.6%, the “% of patients with Serum IgM <0.4 g/L” value [6, 16] was 27.6% and the “% of patients with Serum IgM <0.5 g/L” value [6, 16] was 35.6%. The “% of patients with Serum IgA <0.5 g/L” value [6, 17] was 3.5%, the “% of patients with Serum IgA <0.6 g/L” value [6, 17] was 3.5% and the “% of patients with Serum IgA <0.7 g/L” value [6, 17] was 3.5%. For the same compound, the “% of patients with Serum IgA <0.8 g/L” value [6, 17] was 10.5%, the “% of patients with Serum IgG <3 g/L” value [6, 17] was 1.8% and the “% of patients with Serum IgG <4 g/L” value [6, 17] was 1.8%. The “% of patients with Serum IgG <5 g/L” value [6, 17] was 1.8%, the “% of patients with Serum IgG <6 g/L” value [6, 17] was 8.8% and the “% of patients with Serum IgM <0.2 g/L” value [6, 17] was 1.78%. The “% of patients with Serum IgM <0.4 g/L” value [6, 17] was 26.3%, the “% of patients with Serum IgM <0.5 g/L” value [6, 17] was 33.3% and the “percentage of splenic B cells (B220+TCR-beta-) of total live splenocytes” value ([7]; 5 mg/kg and 10 mg/kg IP, 21 days, FIG. 21) was “significantly lower percentage”. The “other splenic cell populations (B220-TCR-beta-)” value ([7]; FIG. 21) was “No effect”, the “percentage of splenic T cells” value ([7]; FIG. 21) was “reciprocal increase” and the “splenic follicular B cell subset” value ([7]; FIG. 22) was “no specific reductions”. For the same compound, the “splenic marginal zone B cell subset” value ([7]; FIG. 22) was “no specific reductions”, the “proportion of T2 B cells in the spleen” value ([7]; across all doses, FIG. 22) was “small increase” and the “activated T cells (B220+TCR-beta+) in spleen vs control” value ([7]; clozapine 2.5-10 mg/kg, haloperidol 1 mg/kg, IP 21 days, FIG. 21) was “reduced in dose-dependent fashion”. For the same compound, the “transitional stage 1 (T1) B cells in the spleen” value ([7]; including at the 2.5 mg/kg dose, FIG. 22) was “mildly reduced proportion”, the “germinal centre cells in the spleen vs control or haloperidol” value ([7]; steady state, FIG. 22) was “no differences observed” and the “swelling of the first affected paw” value ([8]; 10 mg/kg from day 1, FIG. 27) was “reduced swelling of the first affected paw”. The “onset of arthritis post-immunisation” value ([8]; 5 or 10 mg/kg IP daily from day 1 or day 15, FIG. 25, 26) was “significantly effective”, the “incidence of CIA” value ([8]; FIG. 26) was “reduces the incidence” and the “onset of arthritis, treatment from day 1” value ([8]; both doses (5, 10 mg/kg) from day 1, FIG. 25, 26) was “extremely effective”. For the same compound, the overall clinical score ([8]; both doses, administered from day 1, FIG. 27) was “reduced overall clinical score”, the “total number of affected paws compared to vehicle control” value ([8]; significant with dosing at D1, FIG. 28) was “reduced the total number of affected paws” and the “previously treatment refractive patients in whom effective” value [9] was “approximately 60%”. For the same compound, the “admitted to hospital with infection” value (clozapine group (vs 0.06 controls)) was 0.12 per patient year, the “Admission frequency in 12-month period, infection-related: admissions” value (clozapine-treated patients) was 15 and the “Admission frequency in 12-month period, infection-related: patients” value (clozapine-treated patients) was 10 patients. For the same compound, the “proportion of B220+ B cells in spleen” value ([10]; 10 mg/kg from day 1, FIG. 29) was “significantly reduced”, the “proportion of plasma cells in spleen” value ([10]; 10 mg/kg given on day 1, FIG. 30) was “significant reduction” and the “plasma cell numbers in lymph node” value ([10]; FIG. 30) was “no significant effect”. For the same compound, the “level of GL7 expression on follicular B cells in lymph node” value ([10]; all clozapine treatment groups vs vehicle, FIG. 32) was “significantly decreased”, the “percentage of B220+ B cells in lymph nodes” value ([10]; all doses and time points (5 or 10 mg/kg from day 1 or day 15), FIG. 29) was “significantly lower percentage” and the “lymph node follicular B cells (B220+IgD-Fas+GL7hi)” value ([10]; all doses/both time points, FIG. 31) was “Strikingly significant reductions”.
